Key:
Type in all cases: functional
Escherichia coli [1] = assay: Antimicrobial activity against Escherichia coli isolate CQ19 transconjugant harboring 16S rRNA methylase RmtB and qepA, aac(6')-Ib-cr gene by agar dilution method relative to recipient strain
Escherichia coli [2] = assay: Antimicrobial activity against Escherichia coli isolate GZ2 transconjugant harboring 16S rRNA methylase RmtB and qnrS1 by agar dilution method relative to recipient strain
Escherichia coli [3] = assay: Antimicrobial activity against Escherichia coli isolate CQ1 transconjugant harboring 16S rRNA methylase RmtB and qnrB6 by agar dilution method relative to recipient strain
Escherichia coli [4] = assay: Antimicrobial activity against Escherichia coli isolate CQ4 transconjugant harboring 16S rRNA methylase RmtB and qepA by agar dilution method relative to recipient strain
Escherichia coli [5] = assay: Antimicrobial activity against Escherichia coli isolate GZ8 transconjugant harboring 16S rRNA methylase RmtB and qepA by agar dilution method relative to recipient strain
Escherichia coli [6] = assay: Antimicrobial activity against Escherichia coli isolate GZ10 transconjugant harboring 16S rRNA methylase RmtB and qepA, aac(6')-Ib-cr gene by agar dilution method relative to recipient strain
Escherichia coli [7] = assay: Antimicrobial activity against Escherichia coli isolate GZ9 transconjugant harboring 16S rRNA methylase RmtB and qepA by agar dilution method relative to recipient strain
Escherichia coli [8] = assay: Antimicrobial activity against Escherichia coli isolate CQ20 transconjugant harboring 16S rRNA methylase RmtB and qepA by agar dilution method relative to recipient strain
Escherichia coli [9] = assay: Antimicrobial activity against Escherichia coli isolate CQ26 transconjugant harboring 16S rRNA methylase RmtB and qepA by agar dilution method relative to recipient strain
Escherichia coli [10] = assay: Antimicrobial activity against Escherichia coli isolate CQ5 transconjugant harboring 16S rRNA methylase RmtB and qepA by agar dilution method relative to recipient strain
Escherichia coli [11] = assay: Antimicrobial activity against Escherichia coli isolate CQ14 transconjugant harboring 16S rRNA methylase RmtB and qepA by agar dilution method relative to recipient strain
Escherichia coli [12] = assay: Antimicrobial activity against Escherichia coli isolate GZ11 transconjugant harboring 16S rRNA methylase RmtB and qepA by agar dilution method relative to recipient strain
Escherichia coli [13] = assay: Antimicrobial activity against Escherichia coli isolate GZ16 transconjugant harboring 16S rRNA methylase RmtB and qepA by agar dilution method relative to recipient strain
Escherichia coli [14] = assay: Antimicrobial activity against Escherichia coli isolate CQ16 transconjugant harboring 16S rRNA methylase RmtB and qepA, qnrS2, aac(6')-Ib-cr gene by agar dilution method relative to recipient strain
Escherichia coli [15] = assay: Antimicrobial activity against Escherichia coli isolate GZ13 transconjugant harboring 16S rRNA methylase RmtB and qepA by agar dilution method relative to recipient strain
Escherichia coli [16] = assay: Antimicrobial activity against Escherichia coli isolate GZ3 transconjugant harboring 16S rRNA methylase RmtB and qepA by agar dilution method relative to recipient strain
Escherichia coli [17] = assay: Antimicrobial activity against Escherichia coli isolate GZ7 transconjugant harboring 16S rRNA methylase RmtB and qepA and qnrS1 by agar dilution method relative to recipient strain
Escherichia coli [18] = assay: Antimicrobial activity against Escherichia coli isolate CQ7 transconjugant harboring 16S rRNA methylase RmtB and qepA, qnrS2, aac(6')-Ib-cr gene by agar dilution method relative to recipient strain
Escherichia coli [19] = assay: Antimicrobial activity against Escherichia coli isolate CQ12 transconjugant harboring 16S rRNA methylase RmtB and qepA, qnrS2, aac(6')-Ib-cr gene by agar dilution method relative to recipient strain
Escherichia coli [20] = assay: Antimicrobial activity against Escherichia coli isolate GZ15 transconjugant harboring 16S rRNA methylase RmtB and qepA by agar dilution method relative to recipient strain
Escherichia coli [21] = assay: Antimicrobial activity against Escherichia coli isolate GZ4 transconjugant harboring 16S rRNA methylase RmtB and qepA by agar dilution method relative to recipient strain
Escherichia coli [22] = assay: Antimicrobial activity against Escherichia coli isolate CQ22 transconjugant harboring 16S rRNA methylase RmtB and qnrS1 by agar dilution method relative to recipient strain
Escherichia coli [23] = assay: Antimicrobial activity against Escherichia coli isolate CQ18 transconjugant harboring 16S rRNA methylase RmtB and qepA by agar dilution method relative to recipient strain
Escherichia coli [24] = assay: Antimicrobial activity against Escherichia coli isolate GZ1 transconjugant harboring 16S rRNA methylase RmtB and qnrS1 by agar dilution method relative to recipient strain
Escherichia coli [25] = assay: Antimicrobial activity against Escherichia coli isolate CQ2 transconjugant harboring 16S rRNA methylase RmtB and qepA by agar dilution method relative to recipient strain
Escherichia coli [26] = assay: Antimicrobial activity against Escherichia coli isolate GZ6 transconjugant harboring 16S rRNA methylase RmtB and qepA by agar dilution method relative to recipient strain
Escherichia coli [27] = assay: Antimicrobial activity against Escherichia coli isolate GZ12 transconjugant harboring 16S rRNA methylase RmtB and qepA by agar dilution method relative to recipient strain
Escherichia coli [28] = assay: Antimicrobial activity against Escherichia coli isolate GZ5 transconjugant harboring 16S rRNA methylase RmtB and qepA by agar dilution method relative to recipient strain
Escherichia coli [29] = assay: Antimicrobial activity against Escherichia coli isolate CQ13 transconjugant harboring 16S rRNA methylase RmtB and qnrS1 by agar dilution method relative to recipient strain
Escherichia coli [30] = assay: Antimicrobial activity against Escherichia coli isolate GZ14 transconjugant harboring 16S rRNA methylase RmtB and qepA by agar dilution method relative to recipient strain
Escherichia coli [31] = assay: Antimicrobial activity against Escherichia coli isolate CQ6 transconjugant harboring 16S rRNA methylase RmtB and qepA, qnrS2, aac(6')-Ib-cr gene by agar dilution method relative to recipient strain
Escherichia coli [32] = assay: Antimicrobial activity against Escherichia coli isolate CQ10 transconjugant harboring 16S rRNA methylase RmtB and qepA by agar dilution method relative to recipient strain
Escherichia coli [33] = assay: Antimicrobial activity against Escherichia coli isolate CQ15 transconjugant harboring 16S rRNA methylase RmtB and qepA by agar dilution method relative to recipient strain

SMILES | fold change (FC) (Escherichia coli [1]) | fold change (FC) (Escherichia coli [2]) | fold change (FC) (Escherichia coli [3]) | fold change (FC) (Escherichia coli [4]) | fold change (FC) (Escherichia coli [5]) | fold change (FC) (Escherichia coli [6]) | fold change (FC) (Escherichia coli [7]) | fold change (FC) (Escherichia coli [8]) | fold change (FC) (Escherichia coli [9]) | fold change (FC) (Escherichia coli [10]) | fold change (FC) (Escherichia coli [11]) | fold change (FC) (Escherichia coli [12]) | fold change (FC) (Escherichia coli [13]) | fold change (FC) (Escherichia coli [14]) | fold change (FC) (Escherichia coli [15]) | fold change (FC) (Escherichia coli [16]) | fold change (FC) (Escherichia coli [17]) | fold change (FC) (Escherichia coli [18]) | fold change (FC) (Escherichia coli [19]) | fold change (FC) (Escherichia coli [20]) | further results
C[C@H]1COc2c(N3CCN(C)CC3)c(F)cc3c(=O)c(C(=O)O)cn1c23.C[C@H]1COc2c(N3CCN(C)CC3)c(F)cc3c(=O)c(C(=O)O)cn1c23.O [LEVOFLOXACIN] | 1 | 2 | 1 | 1 | 1 | 4 | 2 | 2 | 1 | 1 | 2 | 2 | 4 | 2 | 2 | 2 | 1 | 1 | 2 | 2 | fold change (FC) (Escherichia coli [21]): 2; fold change (FC) (Escherichia coli [22]): 1; fold change (FC) (Escherichia coli [23]): 1; fold change (FC) (Escherichia coli [24]): 4; fold change (FC) (Escherichia coli [25]): 4; fold change (FC) (Escherichia coli [26]): 4; fold change (FC) (Escherichia coli [27]): 8; fold change (FC) (Escherichia coli [28]): 2; fold change (FC) (Escherichia coli [29]): 4; fold change (FC) (Escherichia coli [30]): 4; fold change (FC) (Escherichia coli [31]): 4; fold change (FC) (Escherichia coli [32]): 2; fold change (FC) (Escherichia coli [33]): 1
CCn1cc(C(=O)O)c(=O)c2ccc(C)nc21 [NALIDIXIC ACID] | 1 | 4 | 2 | 2 | 4 | 16 | 4 | 1 | 1 | 1 | 1 | 2 | 2 | 2 | 4 | 8 | 16 | 1 | 1 | 1 | fold change (FC) (Escherichia coli [21]): 2; fold change (FC) (Escherichia coli [22]): 1; fold change (FC) (Escherichia coli [23]): 1; fold change (FC) (Escherichia coli [24]): 4; fold change (FC) (Escherichia coli [25]): 1; fold change (FC) (Escherichia coli [26]): 1; fold change (FC) (Escherichia coli [27]): 1; fold change (FC) (Escherichia coli [28]): 1; fold change (FC) (Escherichia coli [29]): 4; fold change (FC) (Escherichia coli [30]): 1; fold change (FC) (Escherichia coli [31]): 16; fold change (FC) (Escherichia coli [32]): 1; fold change (FC) (Escherichia coli [33]): 1
CCn1cc(C(=O)O)c(=O)c2cc(F)c(N3CCNCC3)cc21 [NORFLOXACIN] | 16 | 2 | 2 | 2 | 8 | 16 | 16 | 4 | 4 | 16 | 32 | 4 | 8 | 16 | 8 | 16 | 16 | 16 | 16 | 4 | fold change (FC) (Escherichia coli [21]): 4; fold change (FC) (Escherichia coli [22]): 2; fold change (FC) (Escherichia coli [23]): 8; fold change (FC) (Escherichia coli [24]): 16; fold change (FC) (Escherichia coli [25]): 16; fold change (FC) (Escherichia coli [26]): 8; fold change (FC) (Escherichia coli [27]): 16; fold change (FC) (Escherichia coli [28]): 16; fold change (FC) (Escherichia coli [29]): 4; fold change (FC) (Escherichia coli [30]): 16; fold change (FC) (Escherichia coli [31]): 16; fold change (FC) (Escherichia coli [32]): 32; fold change (FC) (Escherichia coli [33]): 8

Reference: ChEMBL document CHEMBL1671858, “Coprevalence of plasmid-mediated quinolone resistance determinants QepA, Qnr, and AAC(6')-Ib-cr among 16S rRNA methylase RmtB-producing Escherichia coli isolates from pigs” (2008)
